Here are results for six compounds from patent US20260176289A1, “SMALL MOLECULE INHIBITORS OF KRAS PROTEINS” (Merck Sharp & Dohme LLC, priority 2022, published 2026).

One assay deals with KRAS-WT (Homo sapiens, UniProt P01116). Kind of assay: SOS-catalyzed nucleotide exchange assay (Procedure A, TR-FRET), KRAS-WT. Type of assay: biochemical. Particulars: nucleotide exchange, read-out: KRAS WT GNE IC50. An outline of the steps: (§1)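 Compounds (10-point, 3-fold) were preincubated 60 min at room temperature with a biotinylated RAS/Bodipy-GDP/Tb-streptavidin TR-FRET complex. Exchange was started with human SOS plus 3 mM GTP. RAS/SOS: G12C 3/40 nM, WT 1/40 nM, NRAS 1.25/40 nM (60 min); G12V 1.25/160 nM (90 min). The 520/495 ratio was fit four-parameter.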
In general terms: In TR-FRET formats the signal depends on donor and acceptor labels being close together.

The target of assay [1] is KRAS-G12C (C51S/C80L/C118S) (Homo sapiens, UniProt P01116, C118S/C51S/C80L/G12C). Briefly: SOS-catalyzed nucleotide exchange assay (Procedure A, TR-FRET), KRAS-G12C. The assay is classed as biochemical. As to conditions: nucleotide exchange, Procedure A; read-out: KRAS G12C GNE IC50. An outline of the steps:
as §1

In the next assay the target is KRAS-G12D (Homo sapiens, UniProt P01116, G12D). Kind of assay: SOS-catalyzed nucleotide exchange assay (Procedure A, TR-FRET), KRAS-G12D. The assay is classed as biochemical. As to conditions: nucleotide exchange, read-out: KRAS G12D GNE IC50. In outline:
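Signal ratio (520/495 nm, excitation 340 nm) reports Bodipy-GDP retention on biotinylated RAS after SOS-catalyzed exchange with 3 mM GTP. SOS was 40 nM, except 160 nM for G12V. Room-temperature exchange lasted 60 min (90 min for G12V), following a 60 min compound preincubation.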

Another assay has as its target KRAS-G12V (Homo sapiens, UniProt P01116, G12V). Briefly: SOS-catalyzed nucleotide exchange assay (Procedure A, TR-FRET), KRAS-G12V. Type of assay: biochemical. Particulars: nucleotide exchange, read-out: KRAS G12V GNE IC50. An outline of the steps:
as §1

In another assay the target is KRAS-G13D (Homo sapiens, UniProt P01116, G13D). Kind of assay: SOS-catalyzed nucleotide exchange assay (Procedure A, TR-FRET), KRAS-G13D. Type of assay: biochemical. Particulars: nucleotide exchange, Procedure A; read-out: KRAS G13D GNE IC50.
Another assay concerns the target HRAS (Homo sapiens, UniProt P01112). Briefly: SOS-catalyzed nucleotide exchange assay (Procedure A, TR-FRET), HRAS. Particulars: read-out: HRAS GNE IC50. Type of assay: biochemical. From the text: Procedure for SOS-Catalyzed Nucleotide Exchange Assay for KRAS-WT, G12C/D/V, G13D, HRAS, and NRAS (Procedure A)
Recombinant KRAS-G12C protein used in this assay has an additional triple mutation (C51S/C80L/C118S). Whereas KRAS-WT, G12D/V, G13D, HRAS and NRAS are in context of their WT protein sequence background. Specifically, the SOS-catalyzed nucleotide exchange assay utilizes a preformed TR-FRET complex containing a specific biotinylated RAS protein (KRAS-WT, G12C/V/D, G13D, HRAS, NRAS; described above) with Bodipy-GDP, and Terbium-streptavidin. Compounds are preincubated with this complex for 60 minutes. Subsequently, recombinant human SOS protein and unlabeled GTP are added to initiate the exchange reaction. Small molecule inhibitors stabilize the Bodipy-GDP complex whereas the untreated protein rapidly exchanges Bodipy-GDP for unlabeled GTP resulting in reduced TR-FRET signal.
To assemble the preformed TR-FRET complexes, each biotinylated RAS protein is diluted to 2 μM in an EDTA Buffer (20 mM HEPES pH 7.5, 50 mM sodium chloride, 10 mM EDTA, and 0.01% Tween) and incubated at room temperature for one hour. This mixture is then further diluted to 90 nM in an Assay Buffer (20 mM HEPES pH 7.5, 150 mM sodium chloride, 10 mM magnesium chloride, and 0.005% Tween) containing 15 nM of Terbium-Streptavidin (Invitrogen, catalog #PV3577) and 900 nM of Bodipy-GDP (Invitrogen, catalog #G22360) and incubated at room temperature for six hours. It should be noted that this preformed TR-FRET complex for each of the RAS protein were made ahead of time, aliquoted and stored at −80° C. until the day of the experiment.
Each test compound (10 mM stock in DMSO) is diluted in DMSO to make a final-10-point, 3-fold dilution and is acoustically dispensed into a 384-well assay plate (Corning, catalog #3820) using an Echo 550 (Labcyte). Each well of the assay plate receives 3 μL of a specific 3×RAS preformed TR-FRET complex and 3 μL of Assay Buffer and is incubated at room temperature for 60 minutes (preincubation time). Each well then receives 3 μL of 3×recombinant human SOS protein and GTP (Sigma, G8877) in Assay Buffer and is incubated at room temperature for 30 minutes (G13D), 60 minutes (KRAS WT/G12C/D, H/NRAS) or 90 minutes for G12V. The final reaction in each well of 9 μL consists of 3 mM GTP, specific Ras and SOS proteins in the following concentrations: KRAS-G12C/SOS=3 nM/40 nM, KRAS-WT and G12D/SOS=1 nM/40 nM, KRAS-G12V/SOS=1.25 nM/160 nM. KRAS-G13D/SOS=1.25 nM/0 nM, HRAS and NRAS=1.25 nM/40 nM.
The time-resolved fluorescence resonance energy transfer (TR-FRET) signal is measured on an Envision (PerkinElmer) plate reader: Excitation filter=340 nm; emission 1=495 nm; emission2=520 nm; dichroic mirror=D400/D505; delay time=[…]. The signal of each well is determined as the ratio of the emission at 520 nm to that at 495 nm. Percent effect of each well is determined after normalization to control wells containing DMSO (no effect) or a saturating concentration of inhibitor (max effect). The apparent effect as a function of compound concentration is fit to a four-parameter logistic equation.

In the next assay the test system is MKN-1 cells. Kind of assay: Cellular phospho-ERK assay, MKN-1 cells (amplified wild-type KRAS). The assay is classed as cell-based. Particulars: Homo sapiens, 2 hours compound incubation, read-out: MKN1 pERK IC50. An outline of the steps: (§2)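 Inhibition of ERK phosphorylation was determined after treating attached cells with compound for 2 h; top concentration 30 μM, serial 1:3 dilution. Each well's p-ERK:total ERK ratio, read by SureFire Ultra, was fitted with a four-parameter model for IC50.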

A further assay relates to AsPC-1 cells. Kind of assay: Cellular phospho-ERK assay, AsPC-1 cells (homozygous KRAS-G12D). The assay is classed as cell-based. Particulars: Homo sapiens, ASPC1, 2 h, 2 hours compound incubation, read-out: AsPC1 pERK IC50. In outline: as §2
In the next assay the test system is SW620 cells. Kind of assay: Cellular phospho-ERK assay, SW620 cells (homozygous KRAS-G12V). As to conditions: Homo sapiens, SW-620, 2 hours compound incubation, read-out: SW620 pERK IC50. The assay is classed as cell-based. In outline: as §2

Sequence of HRAS (P01112 with tags, fused parts or gaps): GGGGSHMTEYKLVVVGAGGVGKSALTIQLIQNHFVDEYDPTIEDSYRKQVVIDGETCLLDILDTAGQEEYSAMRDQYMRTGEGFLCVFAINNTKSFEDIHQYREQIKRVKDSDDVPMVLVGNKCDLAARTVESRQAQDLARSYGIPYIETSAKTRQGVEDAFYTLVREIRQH
Sequence of KRAS-G13D (P01116 with tags, fused parts or gaps isoform P01116-2 G13D): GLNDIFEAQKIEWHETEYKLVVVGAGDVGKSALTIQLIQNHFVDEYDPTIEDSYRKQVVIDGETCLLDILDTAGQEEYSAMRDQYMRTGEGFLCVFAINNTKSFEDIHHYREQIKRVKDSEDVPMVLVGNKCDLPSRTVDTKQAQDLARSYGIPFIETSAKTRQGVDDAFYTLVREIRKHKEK
Sequence of KRAS-G12V (P01116 with tags, fused parts or gaps isoform P01116-2 G12V): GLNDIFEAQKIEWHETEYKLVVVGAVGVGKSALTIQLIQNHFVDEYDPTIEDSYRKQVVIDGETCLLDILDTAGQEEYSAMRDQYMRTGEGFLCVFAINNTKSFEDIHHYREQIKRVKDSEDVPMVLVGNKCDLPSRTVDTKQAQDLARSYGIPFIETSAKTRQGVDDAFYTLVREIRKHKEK
Sequence of KRAS-G12C (C51S/C80L/C118S) (P01116 with tags, fused parts or gaps isoform P01116-2 G12C/C51S/C80L/C118S): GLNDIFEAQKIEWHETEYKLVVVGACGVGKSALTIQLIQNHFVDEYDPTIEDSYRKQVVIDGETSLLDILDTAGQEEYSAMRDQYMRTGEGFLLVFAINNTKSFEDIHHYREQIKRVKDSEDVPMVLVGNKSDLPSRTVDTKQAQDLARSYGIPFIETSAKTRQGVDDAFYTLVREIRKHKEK
Sequence of KRAS-WT (P01116 with tags, fused parts or gaps isoform P01116-2): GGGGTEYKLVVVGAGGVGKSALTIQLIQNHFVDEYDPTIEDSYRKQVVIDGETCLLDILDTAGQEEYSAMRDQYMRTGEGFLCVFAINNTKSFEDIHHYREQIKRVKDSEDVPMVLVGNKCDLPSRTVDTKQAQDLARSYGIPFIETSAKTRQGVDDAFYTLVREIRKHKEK
Sequence of KRAS-G12D (P01116 with tags, fused parts or gaps isoform P01116-2 G12D): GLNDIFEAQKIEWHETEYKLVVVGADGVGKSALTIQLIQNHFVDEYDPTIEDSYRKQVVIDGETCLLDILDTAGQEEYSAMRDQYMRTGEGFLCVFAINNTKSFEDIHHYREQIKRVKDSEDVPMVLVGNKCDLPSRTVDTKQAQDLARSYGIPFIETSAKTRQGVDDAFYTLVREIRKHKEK

The IC50 is the concentration that gives 50% inhibition. For `CCC1CCc2cc3[nH]ncc3c(-c3nccc4c3sc3nc(OC[C@@]56CCCN5C[C@H](F)C6)nc(N5CCOC[C@@](C)(O)C5)c34)c21` (stereo partly drawn) [Ex-169, (6S)-4-(8-(5-ethyl-1,5,6,7-tetrahydro-cyclopenta[f]indazol-4-yl)-2-(((2R,7aS)-2-fluorotetrahydro-1H-pyrrolizin-7a(5H)-yl)methoxy)pyrido [4′,3′:4,5]thieno[2,3-d]pyrimidin-4-yl)-6-methyl-1,4-oxaze-pan-6-ol], the IC50 amounted to 7.7 nM at KRAS-WT; 15.5 nM in [1]; 2.22 nM on KRAS-G12D; 13.5 nM at KRAS-G12V; 7.05 nM on KRAS-G13D; 9790 nM on HRAS. For the same compound, the concentration for half-maximal inhibition (IC50) in the assay with MKN-1 cells was 21.2 nM; in the assay with AsPC-1 cells, 30.9 nM; in the assay on SW620 cells, 25.8 nM.
On to `C[C@@]1(O)COCCN(c2nc(OC[C@]3(CN4CC(CF)C4)CC3(F)F)nc3sc4c(-c5c(C6(F)CC6)c(Cl)cc6[nH]ncc56)nccc4c23)C1` [Ex-266, (6S)-4-(8-(6-chloro-5-(1-fluorocyclopropyl)-1H-indazol-4-yl)-2-(((R)-2,2-difluoro-1-((3-(fluoromethyl)azetidin-1-yl)methyl)cyclopropyl)metho-xy)pyrido[4′,3′:4,5]thieno[2,3-d]pyrimidin-4-yl)-6-methyl-1,4-oxazepan-6-ol], for which the IC50 at KRAS-WT stood at 23.4 nM; in assay [1], 68.8 nM; on KRAS-G12D, 3.75 nM; on KRAS-G12V it was 21.6 nM; at KRAS-G13D, 28.2 nM; at HRAS, 1290 nM. The IC50 amounted to 47.3 nM in the assay with MKN-1 cells, 89.7 nM with AsPC-1 cells and 39.2 nM with SW620 cells.
As for `CN1CCC[C@@]2(COc3nc(N4CCOC[C@@](C)(O)C4)c4c(n3)sc3c(-c5c(C6CC6)c(C(F)(F)F)cc6[nH]ncc56)nccc34)CCC[C@@H]12` [Ex-205, (6S)-4-(8-(5-cyclopropyl-6-(trifluoromethyl)-1H-indazol-4-yl)-2-(((4aS,7aR)-1-methyloctahydro-4aH-cyclopenta[b]pyridin-4a-yl)methoxy)pyrido[4′,3′:4,5]thieno[2,3-d]pyrimidin-4-yl)-6-methyl-1,4-oxazepan-6-ol], the IC50 on KRAS-WT is 3.94 nM; in [1] it was 40.1 nM; on KRAS-G12D it was 1.69 nM; at KRAS-G12V, 4.42 nM; on KRAS-G13D, 10.7 nM; on HRAS, 5090 nM. For the same compound, the IC50 worked out at 17 nM in the assay with MKN-1 cells, 22.3 nM with AsPC-1 cells and 15.1 nM in the assay with SW620 cells.
For `C[C@@]1(O)COCCN(c2nc(OC[C@]3(CN4CC5(CCCOC5)C4)CC3(F)F)nc3sc4c(-c5c(C6(F)CC6)c(Cl)cc6[nH]ncc56)nccc4c23)C1` [Ex-249, (6S)-4-(2-(((R)-1-((6-oxa-2-azaspiro[3.5]nonan-2-yl)methyl)-2,2-difluorocyclopropyl)methoxy)-8-(6-chloro-5-(1-fluorocyclopropyl)-1H-indazol-4-yl)pyrido[4′,3′:4,5]thieno[2,3-d]pyrimidin-4-yl)-6-methyl-1,4-oxazepan-6-ol], the IC50 is 20.2 nM at KRAS-WT; 11.4 nM in [1]; 2.69 nM on KRAS-G12D; 15.5 nM at KRAS-G12V; 21.3 nM on KRAS-G13D; 943 nM on HRAS. Besides, the IC50 with MKN-1 cells came to 36.5 nM; with AsPC-1 cells it was 73.8 nM; with SW620 cells, 51.2 nM.
`C[C@@]1(O)COCCN(c2nc(OC[C@@]34CCCN3C/C(=C\F)C4)nc3sc4c(-c5c(C6(F)CC6)c(Cl)cc6[nH]ncc56)nccc4c23)C1` [Ex-267, (6S)-4-(8-(6-chloro-5-(1-fluorocyclopropyl)-1H-indazol-4-yl)-2-(((S,Z)-2-(fluoromethylene)tetrahydro-1H-pyrrolizin-7a(5H)-yl)methoxy)pyrido[4′,3′:4,5]thieno[2,3-d]pyrimidin-4-yl)-6-methyl-1,4-oxazepan-6-ol]: the IC50 on KRAS-WT was determined as 5.56 nM; in [1] it was 23.5 nM; at KRAS-G12D it was 3.26 nM; on KRAS-G12V it was 8.11 nM; on KRAS-G13D, 9.94 nM; on HRAS, 4250 nM. Besides, the IC50 with MKN-1 cells is 18.7 nM; with AsPC-1 cells, 23.6 nM; in the assay on SW620 cells, 24 nM.
Consider `C#Cc1cccc2cc3[nH]ncc3c(-c3nccc4c3sc3nc(OC[C@@]56CCCN5C[C@H](F)C6)nc(N5CCOC[C@@](C)(O)C5)c34)c12` [Ex-171, (6S)-4-(8-(5-ethynyl-1H-benzo[f]indazol-4-yl)-2-(((2R,7aS)-2-fluorotetrahydro-1H-pyrrolizin-7a(5H)-yl)methoxy)pyrido[4′,3′:4,5]thieno[2,3-d]pyrimidin-4-yl)-6-methyl-1,4-oxazepan-6-ol], for which the IC50 on KRAS-WT was found to be 4.38 nM; in [1], 38.7 nM; at KRAS-G12D, 1.65 nM; at KRAS-G12V it was 5.09 nM; at KRAS-G13D, 5.03 nM; on HRAS, 5130 nM. Also, the IC50 turned out to be 24.2 nM in the assay on MKN-1 cells, 12.3 nM with AsPC-1 cells and 10.5 nM in the assay with SW620 cells.
